In patent US20100331348A1, “TROPANE DERIVATIVES USEFUL AS PESTICIDES” (SYNGENTA CROP PROTECTION, INC., priority 2007, published 2010):
Read-outs that look alike come from different tables or passages of the source.

How the values were obtained:
[1] = tested on: Plutella xylostella; assay: Plutella xylostella (Diamond back moth) artificial diet test; conditions: 120 h, read-out: control of Plutella xylostella
[2] = tested on: Spodoptera littoralis; assay: Spodoptera littoralis (Egyptian cotton leafworm) cotton leaf disc test; conditions: in Gossypium hirsutum, foliar, 72 h, read-out: control of Spodoptera littoralis
[3] = tested on: Aedes aegypti; assay: Aedes aegypti (Yellow fever mosquito) larvae test; assay type: in vivo; conditions: 48 h
[4] = tested on: Pyricularia oryzae; assay: whole plant or invertebrate; assay type: in vivo; conditions: foliar, 96 h
[5] = tested on: Tetranychus urticae; conditions: foliar, 192 h, read-out: control of Tetranychus urticae
[6] = tested on: Heliothis virescens; assay: Heliothis virescens (Tobacco budworm) egg test on artificial diet; conditions: 96 h, read-out: control of Heliothis virescens
[7] = tested on: Myzus persicae; assay: Myzus persicae (Green peach aphid) sunflower leaf disc test; conditions: foliar, 144 h, read-out: control of Myzus persicae
[8] = tested on: Puccinia recondita f.sp. tritici; assay: Puccinia recondita f.sp. tritici (wheat brown rust) leaf disk assay; assay type: in vivo; conditions: foliar, 216 h, preventive, nine days after inoculation, read-out: control of fungal infection, Puccinia recondita f.sp. tritici
[9] = tested on: Erysiphe graminis f.sp. tritici; assay: Erysiphe graminis f.sp. tritici (wheat powdery mildew) leaf disk assay; assay type: in vivo; conditions: Blumeria graminis, foliar, 96 h, preventive, four days after inoculation, read-out: control of fungal infection, Erysiphe graminis fsp. tritici
[10] = tested on: Phytophthora infestans; assay: whole plant or invertebrate; assay type: in vivo; conditions: foliar, 96 h, read-out: control of fungal infection, Phytophthora infestans
[11] = tested on: Pythium ultimum; assay: Pythium ultimum (Damping off) growth inhibition in potato dextrose broth; assay type: cell-based; conditions: Globisporangium ultimum, 48 hours, read-out: control of fungal infection, Pythium ultimum
[12] = tested on: Plasmopara viticola; assay: Plasmopara viticola (downy mildew of grapevine) leaf disk assay; assay type: in vivo; conditions: foliar, 168 h, preventive, seven days after inoculation, read-out: control of fungal infection, Plasmopara viticola
[13] = tested on: Septoria tritici; assay: Septoria tritici (leaf blotch) growth inhibition in nutrient broth; assay type: cell-based; conditions: Zymoseptoria tritici, 72 hrs, read-out: control of fungal infection, Septoria tritici
[14] = read-out: control of fungal infection, Pyricularia oryzae (at least 60% list)
[15] = read-out: control of fungal infection, Pyricularia oryzae (at least 80% list)

SMILES | pest or weed control at 200 ppm [1] [%] | pest or weed control at 200 ppm [2] [%] | pest or weed control at 2 ppm [3] [%] | pest or weed control at 200 ppm [4, 14] [%] | pest or weed control at 200 ppm [4, 15] [%] | pest or weed control at 200 ppm [5] [%] | pest or weed control at 200 ppm [6] [%] | pest or weed control at 200 ppm [7] [%] | pest or weed control at 200 ppm [8] [%] | pest or weed control at 200 ppm [9] [%] | pest or weed control at 200 ppm [10] [%] | inhibition of growth at 200 ppm [11] [%] | pest or weed control at 200 ppm [12] [%] | inhibition of growth at 200 ppm [13] [%]
CCc1ncnc(N2C3CCC2CC(=Cc2ccc(OC)cc2)C3)c1Cl [Example 3.9] | ≥ 80 | ≥ 80 | ≥ 80 | ≥ 60 | ≥ 80 | ≥ 80 | ≥ 80 |  |  |  |  |  |  | 
CCc1ncnc(N2C3CCC2CC(=NOCc2ccc(F)cc2)C3)c1Cl [Example 5.30] | ≥ 80 | ≥ 80 | ≥ 80 | ≥ 60 |  |  | ≥ 80 | ≥ 80 | ≥ 80 | ≥ 80 |  |  |  | 
Fc1cc(Br)ccc1CON=C1CC2CCC(C1)N2c1ncnc2sccc12 [Example 5.232] | ≥ 80 | ≥ 80 | ≥ 80 | ≥ 60 |  |  |  | ≥ 80 | ≥ 80 | ≥ 80 | ≥ 80 | ≥ 60 |  | 
Fc1cccc(F)c1CON=C1CC2CCC(C1)N2c1ncnc2sccc12 [Example 5.215] | ≥ 80 | ≥ 80 | ≥ 80 | ≥ 60 | ≥ 80 | ≥ 80 |  | ≥ 80 | ≥ 80 | ≥ 80 |  |  | ≥ 80 | 
FC(F)(F)c1ccc(CON=C2CC3CCC(C2)N3c2ncnc3ccccc23)cc1 [Example 5.128] | ≥ 80 |  | ≥ 80 | ≥ 60 | ≥ 80 | ≥ 80 | ≥ 80 |  | ≥ 80 |  |  | ≥ 60 |  | ≥ 60
CCc1ncnc(N2C3CCC2CC(CC(=O)OC)C3)c1Cl (centres unmarked) [Example 7.36] | ≥ 80 |  | ≥ 80 |  |  | ≥ 80 | ≥ 80 |  |  |  |  |  |  | ≥ 60
Fc1cc(C(F)(F)F)ccc1CON=C1CC2CCC(C1)N2c1ncnc2ccccc12 [Example 5.135] | ≥ 80 |  | ≥ 80 | ≥ 60 | ≥ 80 | ≥ 80 | ≥ 80 |  | ≥ 80 |  |  | ≥ 60 |  | ≥ 60
Fc1ccccc1CON=C1CC2CCC(C1)N2c1ncnc2sccc12 [Example 5.211] | ≥ 80 | ≥ 80 | ≥ 80 |  |  |  | ≥ 80 |  | ≥ 80 | ≥ 80 | ≥ 80 |  |  | 
Clc1ccc(CC2CC3CCC(C2)N3c2ncnc3sccc23)cc1 (centres unmarked) [Example 7.10] |  |  | ≥ 80 | ≥ 60 | ≥ 80 |  | ≥ 80 |  | ≥ 80 |  |  |  | ≥ 80 | ≥ 60
CCc1ncnc(N2C3CCC2CC(=CCOc2ccc(C)nc2)C3)c1Cl [Example 3.14] |  | ≥ 80 | ≥ 80 |  | ≥ 80 | ≥ 80 | ≥ 80 | ≥ 80 | ≥ 80 |  |  |  |  | ≥ 60
c1ccc(CC2CC3CCC(C2)N3c2ncnc3sccc23)cc1 (centres unmarked) [Example 7.6] |  |  | ≥ 80 | ≥ 60 | ≥ 80 |  | ≥ 80 |  | ≥ 80 |  |  |  | ≥ 80 | ≥ 60
Cc1ccc(C=C2CC3CCC(C2)N3c2ncnc3sccc23)cc1 [Example 3.32] | ≥ 80 | ≥ 80 | ≥ 80 | ≥ 60 | ≥ 80 | ≥ 80 | ≥ 80 | ≥ 80 | ≥ 80 |  |  |  | ≥ 80 | 
CCc1ncnc(N2C3CCC2CC(=Cc2ccc(C)cc2)C3)c1Cl [Example 3.7] | ≥ 80 | ≥ 80 | ≥ 80 |  |  | ≥ 80 | ≥ 80 |  | ≥ 80 |  |  |  |  | 
Clc1ccc(C=C2CC3CCC(C2)N3c2ncnc3sccc23)cc1 [Example 3.20] | ≥ 80 | ≥ 80 | ≥ 80 | ≥ 60 | ≥ 80 | ≥ 80 | ≥ 80 |  | ≥ 80 |  |  |  | ≥ 80 | 
Fc1ccc(F)c(CON=C2CC3CCC(C2)N3c2ncnc3ccccc23)c1F [Example 5.134] | ≥ 80 |  | ≥ 80 | ≥ 60 |  |  | ≥ 80 |  | ≥ 80 |  |  | ≥ 60 |  | ≥ 60
C(=C1CC2CCC(C1)N2c1ncnc2sccc12)c1ccccc1 [Example 3.27] | ≥ 80 | ≥ 80 | ≥ 80 | ≥ 60 | ≥ 80 | ≥ 80 | ≥ 80 |  | ≥ 80 |  | ≥ 80 |  | ≥ 80 | 
